Columns and labels:
Beagle dogs = experiment: 28-day aerosolized liquid inhalation (oronasal) toxicity study in Beagle dogs; format: in vivo
Source text: The objective of the study was to determine the toxicity and toxicokinetic profile of the test article, Riboflavin 5′-phosphate, following inhalation (oronasal) administration to dogs for 28 consecutive days.
Test article: riboflavin 5′-phosphate sodium salt hydrate; alternate identity: vitamin B2 phosphate; description: yellow crystals; potency: 74%. Vehicle article: saline (0.9% (w/v) NaCl for injection); description: clear colorless solution. Exposure method: inhalation by oronasal face mask exposure.
The test (0.5 mg/mL, 2.0 mg/mL, 5.0 mg/mL) and/or vehicle control formulations (0 mg/mL) for each group were prepared fresh daily on each day by dissolving the test article in saline. All prepared test article formulations were protected from light and kept at room temperature (RT).
(§1) Duration of treatment: 28 days. Test system: Dog (Canis familiaris); strain: Beagle.
(§2) The aerosol was produced by metering the flow of the test and control article formulations to 3 clinical nebulizers (Sidestream). The aerosol produced was discharged through a 40 mm diameter tube into a flow-past inhalation exposure system. The airflow rate through the exposure system was monitored and recorded manually during the aerosol generation. Airflow to the exposure system was controlled by the absolute volume of air supplying the aerosol generators using variable area flow meters. Control of the aerosol exhaust flow from the animal exposure system was achieved using an exhaust valve. The system provided a minimum of 6 L/min of aerosol to each animal exposure position and the inlet and outlet airflows were balanced to ensure that there was no dilution of the generated aerosol by air drawn from the environment. Any minor variations in flow were buffered by a balloon reservoir. An equal delivery of aerosol to each exposure position was achieved by employing a distribution network that was identical for each individual exposure position attached to the system.
Mortality checks were performed once daily during the acclimation and pre-treatment periods, and twice a day (am and pm) during the treatment period of the study.
Cage-side clinical signs (ill health, behavioral changes etc.) were recorded for all animals once daily during the acclimation period and twice daily (pre-exposure and post-exposure) during the treatment period except on detailed clinical examination days. A detailed clinical examination of each dog was performed (replacing a cage-side clinical sign observation in the morning) at least once pretreatment, one day prior to Day 1, weekly during the treatment period and before necropsy.
Body weights were recorded for all animals at least once prior to group assignment, and approximately one week prior to initiation of treatment. Body weights were recorded for all animals one day prior to Day 1 and weekly during the treatment period, as well as terminally.
Individual daily food intake was recorded for all animals during the last week of the pretreatment period and throughout the treatment period.
Funduscopic (indirect ophthalmoscopy) and biomicroscopic (slit lamp) examinations were performed for all animals, once during the pre-treatment period and during Week 4 of the treatment period.
Electrocardiograms (limb leads I, II and III, and augmented leads aVR, aVL and aVF) were obtained for all dogs once during the pre-treatment period and at least 90 minutes (between 90-120 minutes) postexposure on Days 1 and during Week 4 of the treatment period. In addition, indirect blood pressure was measured on the same occasions as ECG using a tail cuff. The tracings were assessed for gross changes indicative of cardiac electrical dysfunction and the potential presence of abnormalities involving heart rate (lead II), sinus and atrioventricular rhythm or conductivity were determined. Heart rate, PR interval, QRS duration, QT and QTc intervals values were tabulated for incorporation into the study report. […]

[1] = Toxicokinetics in dogs: plasma riboflavin 5′-phosphate and metabolite riboflavin after aerosolized doses for 28 days; format: in vivo, Dog (Canis familiaris)
Experimental: as §1
A series of 9 blood samples (approximately 2.0 mL each) were removed from each dog on each of Days 1 and 28 of the treatment period. For this purpose, each dog was bled by venipuncture and the samples were collected into tubes containing the anticoagulant, Sodium Heparin. Tubes were placed immediately on wet ice pending processing within 30 minutes of collection. On each occasion, samples were collected at pre-dose, immediately post exposure (IPD), 15 and 30 minutes, 1, 2, 4, 6 and 24 hours post exposure. Following collection, the samples were centrifuged (approximately 4° C.) and the resulting plasma was recovered and stored frozen at ITR (approximately −20° C.) in labeled tubes protected from light pending shipment (on dry ice).

[2] = Aerosol particle size distribution, dog oronasal exposure system (7-Stage Mercer Cascade Impactor); format: physicochemical
Source text: as §2
Determinations of aerosol concentration, particle size distribution, oxygen concentration, relative humidity and temperature were performed on test atmosphere samples collected from a representative port of the exposure system, with a collection sample flow-rate of 1 L/min. The sample flow rates were precisely controlled using variable area flow meters that were calibrated before use using a primary airflow calibrator. The absolute volume of each aerosol concentration sample was measured using a wet type gas meter.
The distribution of particle size in the generated aerosols for Groups 2 to 4 were measured weekly during the treatment period by collecting samples into a 7-Stage Mercer Cascade Impactor and the particle size of aerosolized Riboflavin 5′-phosphate was determined using a validated analytical. The distribution of particle size in the generated aerosols for Group 1 were estimated once weekly by gravimetric determination. The MMAD and the Geometric Standard Deviation (GSD) were calculated based on the results obtained from the impactor using a log-probit transformation.

[3] = Group 2 Low Dose, 0.5 mg/mL formulation
[4] = Group 3 Mid Dose, 2.0 mg/mL formulation
[5] = Group 4 High Dose, 5.0 mg/mL formulation

SMILES: Cc1cc2nc3c(=O)[nH]c(=O)nc-3n(C[C@H](O)[C@H](O)[C@H](O)COP(=O)(O)O)c2cc1C [riboflavin 5′-phosphate]
- No Observed Effect Level (NOEL) (Beagle dogs; Beagle dogs, oronasal inhalation up to 60 minutes/day, 28 consecutive days, high-dose group): 1.341 mg/kg/day
- tolerability (Beagle dogs; beagle dogs, inhalation exposure 28 days): well tolerated
- blood pressure (Beagle dogs; dog, in vivo): no changes in blood pressure that were considered related to treatment
- clinical chemistry (Beagle dogs; dog, in vivo): no changes noted in clinical chemistry parameters that were considered to be treatment-related
- clinical signs (Beagle dogs; dog, in vivo): no clinical signs related to treatment
- coagulation times (Beagle dogs; dog, in vivo): unaffected by treatment
- electrocardiogram wave forms (Beagle dogs; dog, in vivo): unaffected by treatment
- food consumption (Beagle dogs; dog, in vivo): no changes noted in food consumption that were considered to be treatment-related
- hematology (Beagle dogs; dog, in vivo): no changes noted in hematology parameters that were considered to be treatment-related
- macroscopic findings (Beagle dogs; dog, in vivo): no macroscopic findings that were considered to be test article related
- microscopic findings (Beagle dogs; dog, in vivo): no evidence of test article-related histopathological finding
- ophthalmology (Beagle dogs; dog, in vivo): no ocular changes noted that were considered to be treatment-related
- organ weights (Beagle dogs; dog, in vivo): slight increase in spleen weight
- respiratory parameters (respiratory rate, tidal volume and minute volume) (Beagle dogs; dog, in vivo): no changes in respiratory parameters evaluated
- urinalysis (Beagle dogs; dog, in vivo): no changes in any of the urinalysis parameters evaluated that were considered affected by treatment
- adverse effects (Beagle dogs; dog, in vivo, 1.34 mg/kg/day): no adverse effects were observed
- mortality (Beagle dogs; dogs, 28 days inhalation): no premature deaths
- accumulation following repeated dosing ([1]; 28 days): no accumulation
- gender related difference of riboflavin plasma exposure ([1]; Day 1, single administration): no observed apparent gender related difference
- dose dependence of riboflavin plasma exposures (Cmax and AUC(0-T)) ([1]; both sexes, Day 1): increased as a function of the administered doses
- dose dependence of riboflavin plasma exposures (Cmax and AUC(0-T)) ([1]; both sexes, Day 28): increased as a function of the administered doses
- dose proportionality of riboflavin exposures (Cmax and AUC(0-T)) ([1]; both sexes, overall): appeared to be dose proportional
- gender difference in riboflavin exposure ([1]; overall): no gender difference in riboflavin exposure
- riboflavin 5′-phosphate concentrations in plasma of treated animals ([1]; single or repeated exposures): detected in only a single treated animal
- % of particles <3.1 μm [2, 3]: 91.1%
- MMAD [2, 3]: 1.1 μm
- % of particles <3.1 μm [2, 4]: 93.3%
- MMAD [2, 4]: 1.1 μm
- % of particles <3.1 μm [2, 5]: 87.2%
- MMAD [2, 5]: 1.2 μm

Source: US20120213707A1, “Riboflavin Based Aerosol and Use as Placebo in Trials” (MPEX PHARMACEUTICALS, INC., priority 2009, published 2012)
